According to ChEMBL document CHEMBL6127124, “Structure-Activity Relationships and Discovery of (S)-5-(tert-Butyl)-11-(difluoromethoxy)-9-methoxy-2-oxo-1,2,5,6-tetrahydropyrido[2',1':2,3]imidazo[4,5-h]quinoline-3-carboxylic Acid (AB-161), a Novel Orally Available and Liver-Centric HBV RNA Destabilizer” (J Med Chem, 2024):

How the values were obtained:
[1] = Chemical stability of compound in PBS assessed as compound remaining measured after 6 days by HPLC UV analysis; type: physicochemical; settings: buffer, 144 h; time 6 day
[2] = AUC (0 to 24 hrs) in CD-1 mouse at 10 mg/kg, po measured for 24 hrs by LC-MS/MS analysis; type: ADME, organism-based; settings: in vivo
[3] = Metabolic stability in CD-1 mouse liver microsomes assessed as clearance at 0.3 uM preincubated for 5 mins followed by NADPH addition measured upto 60 mins by LC-MS/MS analysis; type: ADME, Microsome; settings: time < 65 min, read-out: CLH
[4] = AUC (0 to 24 hrs) in Sprague-Dawley rat at 5 mg/kg, po measured for 24 hrs by LC-MS/MS analysis; type: ADME, organism-based; settings: in vivo
[5] = Cytotoxicity in human HepG2.2.15 cells by Cell Titer-Glo assay; type: toxicity, cell-based, HepG2 2.2.15
Hepatitis B virus [6] = experiment: Antiviral activity against HBV genotype D in immuno-competent C57BL/6 mouse model of chronic HBV assessed as log10 reduction in HBsAg production at 10 mg/kg, po qd for 7 days measured 24 hrs post-last dose by EIA relative to control; type: functional; settings: time 8 day
[7] = Oral bioavailability in Sprague-Dawley rat at 5 mg/kg measured for 24 hrs by LC-MS/MS analysis; type: ADME, organism-based; settings: in vivo
[8] = Ratio of total drug concentration in liver to plasma in CD-1 mouse at 10 mg/kg, po measured for 24 hrs by LC-MS/MS analysis; type: ADME, organism-based; settings: for Kp at 24 h: CD-1, mouse, liver and plasma; for Ratio: mouse, in vivo, po, 10 mg/kg, 24 h, BLD = below limit of detection
[9] = Metabolic stability in Sprague-Dawley rat liver microsomes assessed as clearance at 0.3 uM preincubated for 5 mins followed by NADPH addition measured upto 60 mins by LC-MS/MS analysis; type: ADME, Microsome; settings: time < 65 min, read-out: CLH
[10] = Metabolic stability in human liver microsomes assessed as clearance at 0.3 uM preincubated for 5 mins followed by NADPH addition measured upto 60 mins by LC-MS/MS analysis; type: ADME, Microsome; settings: time < 65 min, read-out: CLH
[11] = Selectivity ratio of drug concentration in liver in CD-1 mouse at 10 mg/kg, po measured for 24 hrs to EC90 for antiviral activity against HBV infected in human HepG2.2.15 cells assessed as reduction in HBsAg level; type: ADME, organism-based; settings: in vivo
Hepatitis B virus [12] = experiment: Antiviral activity against HBV infected in human HepG2.2.15 cells assessed as reduction in HBsAg level incubated for 6 days with media and compound replenishment on third day by CLIA; type: functional, organism-based; settings: HepG2.2.15, 144 h; for EC90: time 6 day
Hepatitis B virus [13] = experiment: Antiviral activity against HBV genotype D in immuno-competent C57BL/6 mouse model of chronic HBV assessed as log10 reduction in HBsAg production at 3 mg/kg, po qd for 7 days measured 24 hrs post-last dose by EIA relative to control; type: functional; settings: time 8 day
[14] = Oral bioavailability in CD-1 mouse at 10 mg/kg measured for 24 hrs by LC-MS/MS analysis; type: ADME, organism-based; settings: in vivo
[15] = Ratio of total drug concentration in liver to plasma in Sprague-Dawley rat at 5 mg/kg, po measured for 24 hrs by LC-MS/MS analysis; type: ADME, organism-based; settings: other tissue
[16] = Selectivity ratio of drug concentration in liver in Sprague-Dawley rat at 5 mg/kg, po measured for 24 hrs to EC90 for antiviral activity against HBV infected in human HepG2.2.15 cells assessed as reduction in HBsAg level; type: ADME, organism-based; settings: in vivo
[17] = Selectivity ratio of drug concentration in liver in CD-1 mouse at 10 mg/kg, po measured for 12 hrs to EC90 for antiviral activity against HBV infected in human HepG2.2.15 cells assessed as reduction in HBsAg level; type: ADME, organism-based; settings: in vivo
[18] = AUC (0 to 24 hrs) in CD-1 mouse at 0.2 mg/kg, po measured for 24 hrs by LC-MS/MS analysis; type: ADME, organism-based; settings: in vivo
[19] = Ratio of total drug concentration in liver to plasma in CD-1 mouse at 10 mg/kg, po measured for 12 hrs by LC-MS/MS analysis; type: ADME, organism-based; settings: liver and plasma
[20] = Selectivity ratio of drug concentration in liver in CD-1 mouse at 0.2 mg/kg, po measured for 12 hrs to EC90 for antiviral activity against HBV infected in human HepG2.2.15 cells assessed as reduction in HBsAg level; type: ADME, organism-based; settings: in vivo
[21] = Ratio of total drug concentration in liver to plasma in CD-1 mouse at 0.2 mg/kg, po measured for 24 hrs by LC-MS/MS analysis; type: ADME, organism-based; settings: for Ratio: mouse, in vivo, po, 0.2 mg/kg, 24 h, BLD = below limit of detection
Hepatitis B virus [22] = experiment: Antiviral activity against HBV genotype D in immuno-competent C57BL/6 mouse model of chronic HBV assessed as log10 reduction in HBsAg production at 3 mg/kg, po qd for 7 days measured 24 hrs post-last dose by EIA (reference value: 0.67); type: functional; settings: time 8 day
[23] = Selectivity ratio of drug concentration in liver in CD-1 mouse at 0.2 mg/kg, po measured for 24 hrs to EC90 for antiviral activity against HBV infected in human HepG2.2.15 cells assessed as reduction in HBsAg level; type: ADME, organism-based; settings: in vivo
Hepatitis B virus [24] = experiment: Antiviral activity against HBV genotype D in immuno-competent C57BL/6 mouse model of chronic HBV assessed as log10 reduction in HBsAg production at 10 mg/kg, po qd for 7 days measured 24 hrs post-last dose by EIA (reference value: 0.98); type: functional; settings: time 8 day
[25] = Ratio of total drug concentration in liver to plasma in CD-1 mouse at 0.2 mg/kg, po measured for 12 hrs by LC-MS/MS analysis; type: ADME, organism-based; settings: liver and plasma

SMILES | AUC(0-t) at 24 h [2] | microsomal CLint at 0.3 µM [3] | Kp at 24 h [8] | microsomal CLint at 0.3 µM [9] | microsomal CLint at 0.3 µM [10] | EC50 (Hepatitis B virus [12]) | EC90 (Hepatitis B virus [12]) | Kp at 12 h [19] | CC50 [5] | Ratio [11] | Ratio [17] | also measured
CC(C)(C)[C@@H]1Cc2c(nc3c(OC(F)F)cccn23)-c2[nH]c(=O)c(C(=O)O)c(O)c21 | 989 ng·h/mL | 64 µL/min/mg | 308 | 279 µL/min/mg | 6 µL/min/mg | 0.0015 µM | 0.014 µM |  | 36 µM | 92 |  | Stability [1]: Unstable; AUC(0-t) at 24 h [4]: 209 ng·h/mL; log(activity) (Hepatitis B virus [6]): 0.52; bioavailability [7]: 16%; log(activity) (Hepatitis B virus [13]): 0.32; bioavailability [14]: 27%; Ratio [15]: 4397; Ratio [16]: 1008
COc1ccn2c3c(nc2c1OC)-c1[nH]c(=O)c(C(=O)O)cc1[C@H](C(C)(C)C)C3 | 5100 ng·h/mL | 1 µL/min/mg | 5 |  |  | 0.0056 µM | 0.051 µM |  | > 50 µM | 0.3 |  | 
Cn1c2c(cc(C(=O)O)c1=O)[C@H](C(C)(C)C)Cc1c-2nc2c(C(F)(F)F)cc(Cl)cn12 | 786 ng·h/mL | 1 µL/min/mg |  | 2 µL/min/mg | 7 µL/min/mg | 0.00024 µM | 0.0025 µM | 43 | 15 µM |  | 2002 | Ratio [8]: Bld; AUC(0-t) at 24 h [18]: 17 ng·h/mL; Ratio [20]: 22; Ratio ([11]; BLD = below limit of detection): Bld; Ratio [21]: Bld; Ratio ([23]; BLD = below limit of detection): Bld; Kp at 12 h [25]: 24
COc1cccn2c3c(nc12)-c1[nH]c(=O)c(C(=O)O)cc1[C@H](C(C)(C)C)C3 |  | 16 µL/min/mg |  |  | 1 µL/min/mg | 0.012 µM | 0.121 µM | 11 | > 50 µM |  | 3 | 
CC(C)(C)[C@@H]1Cc2c(nc3c(C(F)F)cccn23)-c2[nH]c(=O)c(C(=O)O)cc21 |  | 11 µL/min/mg |  |  | 2 µL/min/mg | 0.012 µM | 0.135 µM |  | > 50 µM |  |  | 
CC(C)(C)[C@@H]1Cc2c(nc3c(C(F)(F)F)cc(Cl)cn23)-c2[nH]c(=O)c(C(=O)O)cc21 |  | 3 µL/min/mg |  |  | 3 µL/min/mg | 0.002 µM | 0.034 µM |  | > 50 µM |  |  | 
COCCCOc1cc2c(nc1OC)-c1[nH]c(=O)c(C(=O)O)c(O)c1[C@H](C(C)(C)C)C2 | 4940 ng·h/mL | 12 µL/min/mg | 1.3 |  | 57 µL/min/mg | 0.0011 µM | 0.013 µM |  | 26 µM | 4.6 |  | Stability [1]: Unstable; bioavailability [14]: 93%
CC(C)(C)[C@@H]1Cc2c(nc3c(C(F)(F)F)cccn23)-c2[nH]c(=O)c(C(=O)O)cc21 | 2150 ng·h/mL | 15 µL/min/mg | 92 | 8 µL/min/mg | 2 µL/min/mg | 0.0031 µM | 0.046 µM | 72 | > 50 µM | 3 | 438 | 
CC(C)(C)C1Cc2c(nc3c(C(F)(F)F)cc(Cl)cn23)-c2c1cc(C(=O)O)c(=O)n2C1CC1 (centres undefined) |  |  |  |  |  | 0.0023 µM | 0.007 µM |  | 16 µM |  |  | 
CC(C)(C)C1Cc2c(cc(OC(F)F)c3ncccc23)-c2[nH]c(=O)c(C(=O)O)c(O)c21 (centres undefined) |  |  |  |  |  | 0.0003 µM | 0.0024 µM |  | 48 µM |  |  | Stability [1]: Unstable

Continued, in another order:

AUC(0-t) at 24 h [2] | microsomal CLint at 0.3 µM [3] | Kp at 24 h [8] | microsomal CLint at 0.3 µM [9] | microsomal CLint at 0.3 µM [10] | EC50 (Hepatitis B virus [12]) | EC90 (Hepatitis B virus [12]) | Kp at 12 h [19] | SMILES | CC50 [5] | Ratio [11] | Ratio [17] | also measured
2740 ng·h/mL | 3 µL/min/mg | 194 | 4 µL/min/mg | 1 µL/min/mg | 0.0037 µM | 0.054 µM | 105 | CC(C)(C)[C@@H]1Cc2c(nc3c(OC(F)F)cc(F)cn23)-c2[nH]c(=O)c(C(=O)O)cc21 | > 50 µM | 203 | 1080 | AUC(0-t) at 24 h [18]: 67 ng·h/mL; Ratio [20]: 25; Kp at 24 h ([21]; CD-1, mouse, liver and plasma): 101; log(activity) (Hepatitis B virus [22]): 0.16; Ratio [23]: 7; log(activity) (Hepatitis B virus [24]): 0.37; Kp at 12 h [25]: 176
 |  |  |  |  | 0.0049 µM | 0.01 µM |  | CC(C)(C)C1Cc2c(nc3c(C(F)(F)F)cc(F)cn23)-c2[nH]c(=O)c(C(=O)O)cc21 (centres undefined) | > 50 µM |  |  | 
853 ng·h/mL | 45 µL/min/mg |  | 33 µL/min/mg | 2 µL/min/mg | 0.0037 µM | 0.034 µM | 133 | CC(C)(C)[C@@H]1Cc2c(nc3c(OC(F)F)cccn23)-c2[nH]c(=O)c(C(=O)O)cc21 | > 50 µM | 1 | 108 | Ratio [8]: Bld
 |  |  |  |  | 0.0008 µM | 0.011 µM |  | Cc1cc(C(F)(F)F)c2nc3c(n2c1)CC(C(C)(C)C)c1cc(C(=O)O)c(=O)[nH]c1-3 (centres undefined) | 47 µM |  |  | 
 |  |  |  |  | 0.0079 µM | 0.007 µM |  | CC(C)(C)[C@@H]1Cc2c(nc3c(OC(F)F)cc(OC(F)F)cn23)-c2[nH]c(=O)c(C(=O)O)cc21 | > 50 µM |  |  | 
2690 ng·h/mL | 3 µL/min/mg | 19 | 5 µL/min/mg | 4 µL/min/mg | 0.0035 µM | 0.049 µM | 24 | COc1ccn2c3c(nc2c1OC(F)F)-c1[nH]c(=O)c(C(=O)O)cc1[C@H](C(C)(C)C)C3 | > 50 µM | 1 | 69 | AUC(0-t) at 24 h [18]: 44 ng·h/mL; Ratio [20]: 3; Ratio [21]: Bld; Ratio ([23]; BLD = below limit of detection): Bld; Kp at 12 h [25]: 22
